Experimental data taken from patent US9340500B2, “Aromatic heterocyclic derivative having TRPV4-inhibiting activity” (SHIONOGI & CO., LTD., priority 2011, dated 2016).
Values after ≈ are worked out from the molar mass of the structure shown.

Target: human ether-a-go-go related gene (hERG) channel (Homo sapiens (Human), UniProt Q12809)
Sequence (Q12809 whole entry): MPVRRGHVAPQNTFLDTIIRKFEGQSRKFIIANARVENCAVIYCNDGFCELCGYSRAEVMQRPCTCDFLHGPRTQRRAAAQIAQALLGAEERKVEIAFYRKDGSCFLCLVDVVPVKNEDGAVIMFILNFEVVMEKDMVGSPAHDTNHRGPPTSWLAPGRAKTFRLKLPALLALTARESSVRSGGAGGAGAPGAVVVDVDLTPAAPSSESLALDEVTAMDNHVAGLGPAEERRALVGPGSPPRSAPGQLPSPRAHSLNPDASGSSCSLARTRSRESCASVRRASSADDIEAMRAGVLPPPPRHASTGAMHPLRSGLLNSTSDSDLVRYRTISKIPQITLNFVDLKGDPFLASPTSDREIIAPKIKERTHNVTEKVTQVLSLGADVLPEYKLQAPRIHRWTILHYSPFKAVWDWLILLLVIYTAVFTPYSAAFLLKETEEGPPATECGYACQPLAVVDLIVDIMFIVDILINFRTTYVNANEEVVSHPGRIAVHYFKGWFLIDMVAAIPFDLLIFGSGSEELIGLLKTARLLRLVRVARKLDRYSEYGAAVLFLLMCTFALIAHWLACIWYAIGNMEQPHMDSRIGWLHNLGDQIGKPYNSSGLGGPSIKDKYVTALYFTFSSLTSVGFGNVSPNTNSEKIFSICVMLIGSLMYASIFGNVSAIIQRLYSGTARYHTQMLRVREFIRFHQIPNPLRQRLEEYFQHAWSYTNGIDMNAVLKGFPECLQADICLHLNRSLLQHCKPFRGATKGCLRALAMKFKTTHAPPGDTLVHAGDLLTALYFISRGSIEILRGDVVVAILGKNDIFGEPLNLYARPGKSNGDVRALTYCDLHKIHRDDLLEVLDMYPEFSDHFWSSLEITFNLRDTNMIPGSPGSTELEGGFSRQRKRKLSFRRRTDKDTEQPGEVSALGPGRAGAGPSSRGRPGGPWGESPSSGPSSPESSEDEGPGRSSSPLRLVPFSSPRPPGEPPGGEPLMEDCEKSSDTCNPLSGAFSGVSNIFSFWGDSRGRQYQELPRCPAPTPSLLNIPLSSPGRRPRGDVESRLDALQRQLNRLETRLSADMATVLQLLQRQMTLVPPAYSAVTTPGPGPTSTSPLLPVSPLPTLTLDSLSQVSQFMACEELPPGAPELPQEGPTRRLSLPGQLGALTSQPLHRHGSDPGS
Assay: hERG test (whole cell patch clamp, IKr)
Type: cell-based
Conditions: 1 μmol/L of test compound, HEK293 cells expressing hERG
Excerpt: For the purpose of assessing risk of an electrocardiogram QT interval prolongation, effects on delayed rectifier K^+ current (IKr), which plays an important role in the ventricular repolarization process, was studied using HEK293 cells expressing human ether-a-go-go related gene (hERG) channel.
After a cell was retained at a membrane potential of −80 mV by whole cell patch clamp method using an automated patch clamp system (PatchXpress 7000A, Axon Instruments Inc.), IKr induced by depolarization pulse stimulation at +40 mV for 2 seconds and, further, repolarization pulse stimulation at −50 mV for 2 seconds was recorded. […] From the recording IKr, an absolute value of the tail peak current was measured based on the current value at the resting membrane potential using an analysis software (DataXpress ver. 1, Molecular Devices Corporation). Further, the % inhibition relative to the tail peak current before application of the test substance was calculated, and compared with the vehicle-applied group (0.1% dimethyl sulfoxide solution) to assess influence of the test substance on IKr.
For `Cc1c(NC(=O)c2cccc(C(F)(F)F)c2)cc(-c2ccccc2)n1CCCN1CCOCC1` [Compound I-082], the hERG % inhibition was 13.5%.

Target: T1, human TRPV4 (Homo sapiens (Human), UniProt Q9HBA0)
T1 sequence (Q9HBA0 whole entry): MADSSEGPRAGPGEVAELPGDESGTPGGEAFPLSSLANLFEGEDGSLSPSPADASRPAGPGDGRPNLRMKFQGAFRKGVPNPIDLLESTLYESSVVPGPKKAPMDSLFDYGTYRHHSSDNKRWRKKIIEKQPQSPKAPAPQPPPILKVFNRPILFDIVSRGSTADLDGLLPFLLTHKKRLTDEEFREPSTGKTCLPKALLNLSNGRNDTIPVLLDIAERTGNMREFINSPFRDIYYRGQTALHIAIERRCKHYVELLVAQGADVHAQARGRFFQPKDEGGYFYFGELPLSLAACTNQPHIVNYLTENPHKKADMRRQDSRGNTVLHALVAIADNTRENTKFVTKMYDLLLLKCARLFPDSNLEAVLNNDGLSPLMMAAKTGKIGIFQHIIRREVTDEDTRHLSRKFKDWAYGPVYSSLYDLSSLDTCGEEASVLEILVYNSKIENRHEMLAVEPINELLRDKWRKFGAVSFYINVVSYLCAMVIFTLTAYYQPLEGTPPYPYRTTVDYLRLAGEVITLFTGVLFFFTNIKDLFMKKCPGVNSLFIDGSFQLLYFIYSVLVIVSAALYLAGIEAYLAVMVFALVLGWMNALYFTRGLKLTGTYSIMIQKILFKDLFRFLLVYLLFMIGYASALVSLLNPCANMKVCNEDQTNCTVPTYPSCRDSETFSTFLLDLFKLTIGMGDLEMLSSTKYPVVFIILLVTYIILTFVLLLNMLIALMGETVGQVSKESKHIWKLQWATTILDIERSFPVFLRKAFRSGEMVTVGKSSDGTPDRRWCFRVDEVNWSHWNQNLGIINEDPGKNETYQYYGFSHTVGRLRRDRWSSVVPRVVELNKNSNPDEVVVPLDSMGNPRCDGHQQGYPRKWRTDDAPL
Assay: Test Example 3: measurement of TRPV4 inhibitory activity (Fluo-3, FDSS 3000, 4α-PDD)
Type: cell-based
Conditions: hTRPV4/CHO cells, calculated from IC50 and 4α-PDD EC50
Description: (§1) For each compound, TRPV4 inhibitory activity was measured using cells.
(§2) (1) The TRPV4 inhibitory activity was measured using CHO-K1 cells stably expressing human TRPV4 (hTRPV4/CHO cells).
(2) Frozen cells were thawed and subcultured with the medium (MEM-α, 10% FBS, […], 50 unit/mL penicillin, 50 μg/mL streptomycin, 1 mg/mL G418).
(3) The 96-well plates which hTRPV4/CHO cells were seeded at densities of 2×10^4 cells/well in the culture medium and cultured in a CO2 incubator in the presence of 5% CO2 at 37° C. for 24 h was used as assay plates.
(4) The assay plate was washed with assay buffer (Hanks, […], […], pH7.4).
(5) Fluo-3, fluorescent dye for Ca influx assay was added to each well, then the assay plate was incubated in a CO2 incubator in the presence of 5% CO2 at 37° C. for one hour (final conc.; 5 μmmol/L Fluo-3).
(6) The assay plate was washed with the assay buffer, and the buffer was remained at 30 μL/well. Then the assay plate was incubated for 10 min at 37° C.
(7) Diluted compound solution was dispensed to each well in the compound plate, and mixed with built-in Pipette and Mixer of the fluorescence analysis system FDSS 3000 (Hamamatsu Photonics).
(8) 50 μL of 4α-PDD solution (concluding 0.1% Pluronic F-127) was applied to each well of assay plate and mixed.
(9) The fluorescent intensity was measured by FDSS 3000 for 8 min from the point of time addition the compound solution, at Ex 480 nm, Em 540 nm wavelength.
TRPV4 inhibitory activity (Ki value) of a compound was evaluated according to the following procedure.
(10) In the presence of the compound, the difference between maximal and minimal of fluorescent intensity value for 8 min from just before addition of 4α-PDD solution was calculated, and it was referred as Max-Min value. Max-Min value of the Ruthenium Red at 10 μM was defined as 100% inhibitory activity, Max-Min value in the absence of the compound was defined as 0% inhibitory activity. The TRPV4 inhibitory activity of the compound was calculated by the following formula. (1−(Max-Min value of the compound−100% inhibitory activity)/(0% inhibitory activity−100% inhibitory activity))×100 (11) By the following formula, inhibitory activity was calculated at 10 points with three fold serial dilution, in the final concentration of the compound from 10 μmmol/L to 0.5 nmol/L. The IC50 value was calculated by dose-response curve. 100−[(fluorescent intensity in the presence of the compound−fluorescent intensity of back ground)/(total fluorescent intensity−fluorescent intensity of back ground)]×100 (12) In the presence of the compound, activity of 4α-PDD was measured at 9 points with three fold serial dilution from 20 μmol/L. Activity of 4α-PDD was calculated by the following formula. (Max-Min value of the each 4α-PDD concentration−0% activity)/(100% activity−0% activity))×100 (13) Effective activity was calculated in 4α-PDD the above. The EC50 value was calculated by dose-response curve. (14) The Ki value of a compound was calculated by the following formula. Ki (nmol/L)=IC50 value (nmol/L)/([A]/EC50 value (nmol/L)) [A]; Concentration of agonist (nmol/L)
`Cc1c(C(=O)Nc2cccc(C(F)(F)F)c2)cc(C(C)(C)C)n1CCCN1CCOCC1` [Compound I-002] gave a Ki of 197 nM.
`Cc1c(C(=O)Nc2cnccn2)cc(-c2ccccc2)n1CCCN1CCOCC1` [Compound I-003] gave a Ki of 3070 nM.
In the case of `Cc1c(C(=O)Nc2ccccc2)cc(-c2ccccc2)n1CCCN1CCOCC1` [Compound I-009], the Ki is reported as 678 nM.
For `Cc1c(C(=O)Nc2cccc(C(F)(F)F)c2)cc(-c2ccccc2)n1CCCN(CCO)CCO` [Compound I-016], the Ki was 191 nM.
`Cc1c(C(=O)Nc2nccs2)cc(-c2ccccc2)n1CCCN1CCOCC1` [Compound I-019] gave a Ki of 1500 nM.
For `Cc1c(C(=O)Nc2cccc(C(F)(F)F)c2)cc(-c2cccnc2)n1CCCN1CCOCC1` [Compound I-021], the Ki was 379 nM.
For `Cc1c(NC(=O)c2cccc(C(F)(F)F)c2)cc(-c2ccccc2)n1CCCN1CCOCC1` [Compound I-082], the Ki was 1440 nM.

System: not listed separately
Assay: Solubility test
Type: physicochemical
Conditions: artificial intestinal juice (phosphate buffer) with 1% DMSO, fassgf or other biorelevant, kinetic from dmso stock, artificial intestinal juice pH 6.8, 16 hours at 25° C.
Description: The solubility of each compound is determined under 1% DMSO addition conditions. A 10 mmol/L solution of the compound is prepared with DMSO, and 6 μL of the compound solution is added to 594 μL of an artificial intestinal juice (water and 118 mL of 0.2 mol/L NaOH reagent are added to 250 mL of 0.2 mol/L potassium dihydrogen phosphate reagent to reach 1000 mL) with a pH of 6.8. The mixture is left standing for 16 hours at 25° C., and the mixture is vacuum-filtered. The filtrate is two-fold diluted with methanol/water=1/1, and the compound concentration in the filtrate is measured with HPLC or LC/MS/MS by the absolute calibration method.
With `Cc1c(C(=O)Nc2cccc(C(F)(F)F)c2)cc(C(C)(C)C)n1CCCN1CCOCC1` [Compound I-002] the solubility at 16 h was 19.3 µM (≈ 8.71 µg/mL).
In the case of `Cc1c(C(=O)Nc2cnccn2)cc(-c2ccccc2)n1CCCN1CCOCC1` [Compound I-003], the solubility at 16 h is reported as over 50 µM.
Work on `Cc1c(C(=O)Nc2ccccc2)cc(-c2ccccc2)n1CCCN1CCOCC1` [Compound I-009] yielded a solubility at 16 h of over 50 µM.
Work on `Cc1c(C(=O)Nc2cccc(C(F)(F)F)c2)cc(-c2ccccc2)n1CCCN(CCO)CCO` [Compound I-016] yielded a solubility at 16 h of over 50 µM.
Work on `Cc1c(C(=O)Nc2nccs2)cc(-c2ccccc2)n1CCCN1CCOCC1` [Compound I-019] yielded a solubility at 16 h of over 50 µM.
`Cc1c(C(=O)Nc2cccc(C(F)(F)F)c2)cc(-c2cccnc2)n1CCCN1CCOCC1` [Compound I-021] showed a solubility at 16 h of over 50 µM.
Compound `Cc1c(NC(=O)c2cccc(C(F)(F)F)c2)cc(-c2ccccc2)n1CCCN1CCOCC1` [Compound I-082] has a solubility at 16 h of over 50 µM.

System: not listed separately
Assay: Metabolism stability test
Type: in vitro ADME
Conditions: human liver microsomes, 30 minutes, compound concentration 2 μmol/L
Description: Using a commercially available pooled human hepatic microsomes, a test compound was reacted for a constant time, a remaining rate was calculated by comparing a reacted sample and an unreacted sample, thereby, a degree of metabolism in liver was assessed.
A reaction was performed (oxidative reaction) at 37° C. for 0 minute or 30 minutes in the presence of 1 mmol/L NADPH in 0.2 mL of a buffer (50 mmol/L Tris-HCl pH 7.4, 150 mmol/L potassium chloride, 10 mmol/L magnesium chloride) containing 0.5 mg protein/mL of human liver microsomes. After the reaction, 50 μL of the reaction mixture was added to 100 μL of a methanol/acetonitrile=1/1 (v/v), mixed and centrifuged at 3000 rpm for 15 minutes. The test compound in the supernatant was quantified by LC/MS/MS, and a remaining amount of the test compound after the reaction was calculated, letting a compound amount at 0 minute reaction time to be 100%. Hydrolysis reaction was performed in the absence of NADPH and glucuronidation reaction was in the presence of 5 mM UDP-glucuronic acid in place of NADPH, followed by similar operations.
For `Cc1c(C(=O)Nc2cnccn2)cc(-c2ccccc2)n1CCCN1CCOCC1` [Compound I-003], the “remaining rate (metabolism stability)” value was 71.4%.
With `Cc1c(C(=O)Nc2nccs2)cc(-c2ccccc2)n1CCCN1CCOCC1` [Compound I-019] the “remaining rate (metabolism stability)” value was 89.1%.

Target: T1, human TRPV4
Assay: Test Example 1: measurement of TRPV4 inhibitory activity (Fluo 4-AM, FLIPR TETRA, 4α-PDD 1 μmol/L)
Type: cell-based
Conditions: hTRPV4/CHO cells, 4α-PDD 1 μmol/L
Description: as §1, §2
(2) In the day before the experimental day, frozen cell were thawed and washed with the culture medium (MEM-α, 10% FBS, 2 mmol/L GlutaMax, 50 unit Penicillin, 50 μg/mL Streptomycin). Then cells were suspended in the culture medium.
(3) The 384-well plates which hTRPV4/CHO cells were seeded at densities of 4000 cells/well in the culture medium and cultured in a CO2 incubator in the presence of 5% CO2 at 37° C. for overnight was used as assay plates.
(4) The assay plate was washed with assay buffer (Hanks, 20 mmol/L HEPES, 2.5 mmol/L probenecid, pH7.4), and the buffer were remained at 20 μL/well.
(5) 10 μl of dye loading buffer (9 μmol/L Fluo 4-AM, 0.09% Pluronic F-127/assay buffer) was added to each well, then the assay plate was incubated in a CO2 incubator in the presence of 5% CO2 at 37° C. for one hour. (final 3 μmol/L Fluo4-AM).
(6) The assay plate was washed with the assay buffer, and the buffers were remained at 20 μL/well. Then the assay plate was incubated for 10 min at room temperature.
(7) Diluted compound solution was dispensed to each well in the compound plate, and mixed with built-in Pipette and Mixer of the Fluorescence analysis system FLIPR TETRA (Molecular devices).
(8) After incubation for 5 min, 20 μL of 4α-PDD solution were applied to each well of assay plate and mixed with the FLIPR TETRA. (final 1 μmol/L 4α-PDD)
(9) The fluorescent intensity was measured with FLIPR TETRA system for 10 min from the point of time addition the compound solution, at Ex 470-495 nm, Em 515-575 nm wavelength.
TRPV4 inhibitory activity (IC50 value and Ki value) of a compound was evaluated according to the following procedure.
(10) In the presence of the compound, the difference between maximal and minimal of fluorescent intensity value for 5 min from just before addition of 4α-PDD solution was calculated, and it was referred as Max-Min value. Max-Min value of the Ruthenium Red at 20 μM was defined as 100% inhibitory activity, Max-Min value in the absence of the compound was defined as 0% inhibitory activity. The TRPV4 inhibitory activity of the compound was calculated by the following formula. (1−(Max-Min value of the compound−100% inhibitory activity)/(0% inhibitory activity−100% inhibitory activity))×100 (11) Inhibitory activity was calculated at 10 points with three fold serial dilution, in the final concentration of the compound from 10 μmmol/L to 0.5 nmol/L, the IC50 value was calculated by logistic approximation method. (12) In the absence of the compound, the fluorescent intensity was measured as the same method with 10, 1, 0.5, 0.2, and 0 μmol/L as final concentration of 4α-PDD. The difference of minimal and maximal fluorescent intensity value for 5 min from just before addition of 4α-PDD solution was calculated, and it was referred as Max-Min value. Max-Min value of the 4α-PDD at 10 μmol/L was defined as 100% activity, Max-Min value in the absence of 4α-PDD was defined as 0% activity. The TRPV4 activity of each concentration of 4α-PDD was calculated by the following formula. (Max-Min value of the each 4α-PDD concentration−0% activity)/(100% activity−0% activity))×100 (13) Effective activity was calculated in 5 concentrations of 4α-PDD the above. The EC50 value was calculated by logistic approximation method. The Ki value of a compound was calculated by the following formula. Ki (nmol/L)=IC50 value (nmol/L)/(1+[…] (test 4α-PDD concentration (nmol/L)/EC50 value (nmol/L))
`Cc1c(C(=O)Nc2cccc(C(F)(F)F)c2)cc(C(C)(C)C)n1CCCN1CCOCC1` [Compound I-002] showed an IC50 of 360 nM.
In the case of `Cc1c(C(=O)Nc2ccccc2)cc(-c2ccccc2)n1CCCN1CCOCC1` [Compound I-009], the IC50 is reported as 1500 nM.
With `Cc1c(C(=O)Nc2cccc(C(F)(F)F)c2)cc(-c2ccccc2)n1CCCN(CCO)CCO` [Compound I-016] the IC50 was 130 nM.
With `Cc1c(C(=O)Nc2cccc(C(F)(F)F)c2)cc(-c2cccnc2)n1CCCN1CCOCC1` [Compound I-021] the IC50 was 610 nM.
